Earlier results as cited in patent publication US3968207A, “Method of controlling fleas and ticks on cats and dogs” (priority 1975, dated 1976).

System: lice
Conditions: single spray treatment; cited from earlier work

Compound: CCOP(=S)(OCC)Oc1nc(Cl)c(Cl)cc1Cl [Dursban, O,O-diethyl O-(3,5,6-trichloro-2-pyridyl)phosphorothioate]
- control of lice on cattle: effective control
